In EP1785417A2, “Novel non-psychotropic cannabinoids” (priority 2000, dated 2001):

Assays:
[1] = system: rats following Closed Head Injury (CHI); assay: Rat model of closed head injury (cerebral edema, NSS); assay type: in vivo; conditions: for Neurological score 1hr / ΔNSS 24hr / Neurological score 24hr / Water content Left / Water content Right: rats, CHI; for Neurological score 1hr: 1 hr after injury; for Neurological score 24hr: 24 hr after injury; for Water content Left / Water content Right: doses of 5-10 mg/kg
Description: The cerebroprotective effect of PRS-211 compounds was assessed in a model of head trauma (HT) in rats. Injury was induced in anesthetized rats by a weight-drop device followed by a recovery period of up to 48 hours. This type of trauma produces brain edema (i.e. increase in water content, decrease in specific gravity in the brain), breakdown of the blood brain barrier (BBB) and clinical dysfunction. The clinical status of the rats was evaluated 1, 24 and 48 hours after injury along with measuring the extent of cerebral edema. The neurological deficit, assessed by a set of criteria termed the Neurological Severity Score (NSS), is maximal at 1 hour after the initiation of head trauma. The NSS slowly decreases over time from the initiation of HT, with the gradual spontaneous recovery of the rats.
The model was described in detail by Shapira et al., Crit. Care Med. 16:258-265, 1988. Rats were subjected to head trauma (HT) by a weight-drop device and surviving rats were followed up after one week. During that period they had free access to food and water, and were kept 2-3 rats to a cage. At any predesignated time (15 min, 1, 4, 24, 48 hrs, etc.) rats were sacrificed. Their brains were then rapidly removed and cortical tissue taken to determine water content, ions and the metabolites of interest at any particular metabolic cascade studied. During the recovery period, the clinical status was evaluated by a set of criteria (NSS).
Trauma induced a significant decrease in specific gravity (SG) of brain tissue and increase in water content following head injury. Edema developed since more water accumulates in either the extracellular (vasogenic) or intracellular (cytotoxic) spaces. The methods employed to determine edema are based on linear gradient columns of bromobenzene and kerosene (for SG) and for water content on drying the tissue in a desiccated oven. Tissue pieces (20 mg each) were placed on top of the column and the SG calculated from the equilibrium position in the column, using a standard curve.
The effect of PRS-211 analogs was calculated by the percent edema formation, where 100% was taken as edema in control, non-treated rats. Thus, the reduction in the SG was calculated as follows: SG(sham)-SG(drug)/SG(sham)-SG(cont) × 100 [formula] The increase in water content was calculated as follows: [%H2O(drug-%H2 O(sham)/%H2 O(cont)-%H2 O(sham)] × 100 [formula] All results presented in the table are statistically different (p<0.05) from control, traumatized vehicle treated rats.

[2] = system: transient middle cerebral artery occlusion in rats; assay: Transient middle cerebral artery occlusion (MCAo), infarct size evaluation; assay type: in vivo; conditions: for Mortality rate: 5 mg/kg IV at 2+0 hours; for reduction of infarct size: IV, one week after the ischemic insult
Excerpt: Experimental design. The design was a randomized one, performed in a masked fashion as to whether drug or vehicle was being given, and an attempt was made to generate approximately equal numbers of drug- and vehicle-treated animals.
• a. Male rats (8 /treatment group) 320-380 gr. (Harlan Israel). • b. Halothane (Rhone Poulenc France) • c. Pentobarbitone (Pental Veterinary, CTS Israel). • d. Poly - L - Lysine (Sigma, USA). • e. Silk suture material 3-0 and 4-0. • f. Nylon (Polyamid) suture material 3-0. Four cm pieces were cut and positioned in a solution of 1% Poly - L - Lysine for 1 minute and dried in an oven (60 ° C) for 60 minutes. The tip of each piece was rounded under a flame. • g. Saline (Teva Medical). • h. Blank cremophor ethanol cosolvent (Pharmos). • i. Dexanabinol in cremophor ethanol cosolvent 50 mg/ml. (Both Dexanabinol and its vehicle were diluted in saline prior to drug administration. • j. Analogs PRS-211,092, PRS-211,095, PRS-211,128 PRS-211,132 and PRS-211,220 in cremophor ethanol cosolvent, 50 mg/ml. • k. The analogs were diluted in saline prior to drug administration.
• a. Surgical details of the MCAo method used for testing dexanabinol analogs, are presented in Belayev, et al., (Belayev, Busto, Weizhao, and Ginsberg, Stroke 26:2313-2319, 1995) which is incorporated herein in its entirety by reference. • b. Two hours after the start of MCAO, the animals were reanesthetized with halothane, the neck wound was re-opened and the nylon thread pulled out of the Internal carotid artery (ICA). The skin wound was then closed with 3-0 silk suture material and the animals allowed to recover from the anesthesia. • c. Three sets of animals were tested. In the first test immediately (2+0 hours) before thread removal the animals were injected IV with either analogs PRS-211,095, PRS-211,128, PRS-211,132, or Dexanabinol (PRS-211,007) each at a dosage of 5 mg/kg. One group of animals was treated with 5ml/kg vehicle alone. In another group, the animals subjected to "sham" operation, the suture was passed into the ICA, as described above, but immediately withdrawn. In the second set dexanabinol, PRS-211,092, PRS-211,095 and PRS-211,220 were used, at 2+0 hours. In the third set dexanabinol, PRS-211,092, PRS-211,095 and PRS-211,220 were administered 1 hour after thread removal (2+1 hours). Laser Doppler Flow (LDF) determined the success of MCAo - a drop of more then 50% in cerebral blood flow was considered as a sign of successful MCAo. Although LDF was a helpful corroborative sign, clinical outcome remained the final inclusion/exclusion criterion, since, with the exception of the PRS-211,220 staircase study, LDF was introduced only after initiation of the study.
A detailed investigation of neurological performance was carried out on the first, third and the 7th day after the MCAo. Two parameters were examined: posture and the flexion reflex (based on Nokon and Chuang, NeuroReport 9, 1998: 2081-2084). Animals were scored according to their performance:
One week after the ischemic insult, animals were euthanized with pentobarbitone 100 mg/kg IP. The animals were perfused through the heart with heparinized 4% formaldehyde solution in PBS (pH 7.4). Brains were then removed, and kept in the same solution before preparation for histological evaluation of the brain infarct volume.

| SMILES | edema formation and BBB disruption ([1]; given 30 min before, immediately after, or 1 and 2 hours after HT) | edema and clinical outcome ([1]; one dose of 5 mg/kg given 1 hour after the impact, measured 24 hours after HT) | Neurological score 1hr [1] | ΔNSS 24hr [1] | Neurological score 24hr [1] | Water content Left [1] | Water content Right [1] | Mortality rate [2] | reduction of infarct size [2] [%] | Behavioral / Neurological outcome ([2]; compared to the other treatment groups) |
| --- | --- | --- | --- | --- | --- | --- | --- | --- | --- | --- |
| CCCCCCC(C)(C)c1cc(O)c2c(c1)OC(C)(C)[C@H]1CC=C(Cn3ccnc3)C[C@H]21 (single isomer, unassigned) [211,095-000] | significantly reduces edema formation and BBB disruption | effectively reduced edema and improved the clinical outcome | 11.9 ±0.6 | 6.5 ±0.45 | 5.4 ±0.5 | 82.89 ±0.48 | 79.75 ±0.20 | No mortality | 60 | fewer neurological deficits and recovered faster |
| CCCCCCC(C)(C)c1cc(O)c2c(c1)OC(C)(C)[C@H]1CC=C(CO)C[C@H]21 [211,007-000 HU-211, 1,1 dimethyl heptyl-(3 S,4S)-7-hydroxy-Δ^6-tetrahydrocannabinol, reference compound] |  |  | 11.7 ±0.7 | 5.5 ±0.42 | 6.3 ±0.6 | 83.09 ±0.51 | 79.37 ±0.30 | 9% | 48 |  |
